Here are results for twelve compounds from patent US9321773B2, “Compounds” (Respivert Ltd, priority 2009, dated 2016).

A word on the IC50: it is the midpoint of a concentration-inhibition curve.

Read-outs that look alike come from different tables or passages of the source.

Data set [1] has as its system PMA-differentiated U937 cells. The data set is described as follows: MTT Assay (cell viability). The data set is classed as cell-based, Human. The following applies: percentage loss of cell viability; for Cell Viability MTT Assay in D-U937 cells at 4 hr: 4 hr in 5% FCS; for Cell Viability MTT Assay in D-U937 cells at 24 hr: 24 hr in 10% FCS. The procedure: PMA-differentiated U937 cells were pre-incubated with compound for 4 hr in 5% FCS or 10% FCS for 24 hr. The supernatant was replaced with 200 μL of new media and 10 μL of MTT stock solution (5 mg/ml) added to each well. After 1 hr incubation, the media were removed, 200 μL of DMSO added to each well and the plates were shaken lightly for 1 hr prior to reading the absorbance at 550 nm. The percentage loss of cell viability was calculated for each well relative to vehicle (0.5% DMSO)-treatment (Table 3).

Data set [2] concerns H2O2 induced pAkt in D-U937 cells. The data set is described as follows: PI3Kδ Cell Based Assay (H2O2 induced pAkt). As to conditions: Homo sapiens, dU937. The procedure:
As a means of assessing PI3K 6 activation in response to stimuli, the phosphorylation status of the protein, Akt, a downstream product of PI3K6, signaling was determined. Human monocytic cells (U937 cells), were differentiated to macrophage-type cells by incubation with phorbol myristate acetate (PMA; 100 ng/mL) for 48 to 72 hr. […] The cells were washed with buffer (PBS containing 0.1% Triton X-100) and were incubated with blocking solution (1% BSA in PBS) for 1 hr and were then re-washed with buffer and incubated overnight with either anti-pAkt antibody or anti-pan-Akt antibody (both from Cell Signaling Technology). […] This reaction was stopped by addition of 100 μL of 1N H2SO4 solution. […] The ratio of pAkt signal to total Akt signal was used to quantitate the extent of PI3K δ activation. […] The IC50 values were calculated from the concentration-response curves generated by the serial dilutions of the test compounds (Table 3 and Table 4).

Data set [3] concerns the target recombinant PI3 kinase α (Homo sapiens (Human), UniProt P42336). The data set is described as follows: Enzyme Inhibition Assay (HTRF PI3K enzyme assay, TR-FRET). The data set is classed as biochemical. The source says: (§1) PI3 kinases catalyse the phosphorylation of phosphatidylinositol 4,5-biphosphate (PIP2) to phosphatidylinositol 3,4,5-triphosphate (PIP3) in the presence of ATP and Mg^2+ ions. The PIP3 product can be detected by displacement of biotin-PIP3 from energy transfer complexes consisting of europium labelled anti-GST monoclonal antibody, a GST-tagged Pleckstrin homology (PH) domain, biotinylated PIP3 and streptavidin-allophycocyanin (APC) by the time-resolved fluorescence resonance energy transfer (TR-FRET) (HTRF® PI3K enzyme assay, Millipore). […] The PIP3 product formed by PI3K activity displaces biotin-PIP3 from the complex and results in a loss of energy transfer (decreasing signal).
(§2) The compound to be tested was added, at the desired final concentrations, to a mixture of PIP2 substrate and recombinant PI3 kinase α, δ or γ enzymes (Millipore), and the mixture incubated for 2 hr at RT. […] A stopping solution containing biotinylated PIP3 and the detection mix containing the GST tagged GRP1 pleckstrin homology (PH) domain and fluorophores were then added and the mixture was incubated at RT for 15-18 hr, prior to detection in a fluorescence microplate reader (Varioskan® Flash, ThermoFisher Scientific).

For data set [4], the target named is recombinant PI3 kinase γ (Homo sapiens (Human), UniProt P48736). The data set is described as above. The class given is biochemical.
Source text: as §1, §2

Data set [5] deals with recombinant PI3 kinase δ (Homo sapiens (Human), UniProt O00329). Described as above. The class given is biochemical.
Source text: as §1, §2

The mark [6] stands for this setting: activity range, D-U937 cells, read-out: Cellular Activity IC50 values (H2O2 induced pAkt D-U937 Cells).
[7] abbreviates: activity range, read-out: PI3 Kinase Inhibition IC50 values at stated Isozyme α.
Setting [8] is: activity range, read-out: PI3 Kinase Inhibition IC50 values at stated Isozyme γ.
Setting [9] is: activity range, read-out: PI3 Kinase Inhibition IC50 values at stated Isozyme δ.

recombinant PI3 kinase α, sequence (P42336 whole entry): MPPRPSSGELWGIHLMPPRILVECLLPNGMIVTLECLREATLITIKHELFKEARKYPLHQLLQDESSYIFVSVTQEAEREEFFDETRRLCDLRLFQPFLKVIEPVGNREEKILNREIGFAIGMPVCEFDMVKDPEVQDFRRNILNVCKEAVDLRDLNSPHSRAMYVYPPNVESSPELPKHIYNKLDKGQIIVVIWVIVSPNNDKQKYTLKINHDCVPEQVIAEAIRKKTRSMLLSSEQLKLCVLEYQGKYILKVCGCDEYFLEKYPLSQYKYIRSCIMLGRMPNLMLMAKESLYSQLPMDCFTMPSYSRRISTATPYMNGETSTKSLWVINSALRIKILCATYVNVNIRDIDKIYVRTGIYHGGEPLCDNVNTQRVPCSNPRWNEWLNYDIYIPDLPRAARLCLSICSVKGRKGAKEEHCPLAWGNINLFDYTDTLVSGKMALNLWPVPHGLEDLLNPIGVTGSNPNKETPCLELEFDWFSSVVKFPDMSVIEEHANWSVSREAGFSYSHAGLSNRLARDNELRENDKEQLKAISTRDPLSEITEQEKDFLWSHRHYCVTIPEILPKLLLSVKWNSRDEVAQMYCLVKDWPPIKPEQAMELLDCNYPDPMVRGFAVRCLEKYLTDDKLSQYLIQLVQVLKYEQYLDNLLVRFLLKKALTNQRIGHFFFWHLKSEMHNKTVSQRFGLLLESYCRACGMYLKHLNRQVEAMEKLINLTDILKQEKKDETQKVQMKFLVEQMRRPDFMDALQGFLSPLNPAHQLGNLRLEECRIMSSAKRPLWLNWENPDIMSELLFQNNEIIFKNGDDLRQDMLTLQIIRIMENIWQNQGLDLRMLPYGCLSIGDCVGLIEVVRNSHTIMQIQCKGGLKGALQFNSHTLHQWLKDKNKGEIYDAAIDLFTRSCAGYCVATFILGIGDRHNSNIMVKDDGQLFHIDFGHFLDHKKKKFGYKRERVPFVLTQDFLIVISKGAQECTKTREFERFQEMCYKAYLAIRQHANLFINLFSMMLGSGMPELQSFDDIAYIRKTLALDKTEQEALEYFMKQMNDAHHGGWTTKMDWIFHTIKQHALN
recombinant PI3 kinase α, sequence (P27986 whole entry partner): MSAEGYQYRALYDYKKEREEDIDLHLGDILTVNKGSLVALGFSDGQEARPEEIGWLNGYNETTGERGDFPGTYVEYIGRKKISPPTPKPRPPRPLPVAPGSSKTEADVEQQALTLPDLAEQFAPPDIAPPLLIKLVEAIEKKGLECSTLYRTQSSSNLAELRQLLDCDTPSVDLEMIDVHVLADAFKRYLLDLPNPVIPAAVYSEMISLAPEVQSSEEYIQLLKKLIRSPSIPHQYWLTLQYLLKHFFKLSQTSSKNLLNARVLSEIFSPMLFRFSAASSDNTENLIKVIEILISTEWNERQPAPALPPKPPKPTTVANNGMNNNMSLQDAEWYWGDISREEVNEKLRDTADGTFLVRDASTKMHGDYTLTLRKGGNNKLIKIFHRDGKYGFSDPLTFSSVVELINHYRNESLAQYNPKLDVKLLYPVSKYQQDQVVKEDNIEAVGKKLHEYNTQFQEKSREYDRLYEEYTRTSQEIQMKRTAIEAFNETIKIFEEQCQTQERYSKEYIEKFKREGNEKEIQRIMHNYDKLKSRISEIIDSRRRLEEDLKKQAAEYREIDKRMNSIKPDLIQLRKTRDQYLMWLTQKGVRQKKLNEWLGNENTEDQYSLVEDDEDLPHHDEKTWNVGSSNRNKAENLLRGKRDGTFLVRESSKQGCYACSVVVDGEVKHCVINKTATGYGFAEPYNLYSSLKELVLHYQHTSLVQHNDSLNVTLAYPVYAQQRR
recombinant PI3 kinase γ, sequence (P48736 whole entry): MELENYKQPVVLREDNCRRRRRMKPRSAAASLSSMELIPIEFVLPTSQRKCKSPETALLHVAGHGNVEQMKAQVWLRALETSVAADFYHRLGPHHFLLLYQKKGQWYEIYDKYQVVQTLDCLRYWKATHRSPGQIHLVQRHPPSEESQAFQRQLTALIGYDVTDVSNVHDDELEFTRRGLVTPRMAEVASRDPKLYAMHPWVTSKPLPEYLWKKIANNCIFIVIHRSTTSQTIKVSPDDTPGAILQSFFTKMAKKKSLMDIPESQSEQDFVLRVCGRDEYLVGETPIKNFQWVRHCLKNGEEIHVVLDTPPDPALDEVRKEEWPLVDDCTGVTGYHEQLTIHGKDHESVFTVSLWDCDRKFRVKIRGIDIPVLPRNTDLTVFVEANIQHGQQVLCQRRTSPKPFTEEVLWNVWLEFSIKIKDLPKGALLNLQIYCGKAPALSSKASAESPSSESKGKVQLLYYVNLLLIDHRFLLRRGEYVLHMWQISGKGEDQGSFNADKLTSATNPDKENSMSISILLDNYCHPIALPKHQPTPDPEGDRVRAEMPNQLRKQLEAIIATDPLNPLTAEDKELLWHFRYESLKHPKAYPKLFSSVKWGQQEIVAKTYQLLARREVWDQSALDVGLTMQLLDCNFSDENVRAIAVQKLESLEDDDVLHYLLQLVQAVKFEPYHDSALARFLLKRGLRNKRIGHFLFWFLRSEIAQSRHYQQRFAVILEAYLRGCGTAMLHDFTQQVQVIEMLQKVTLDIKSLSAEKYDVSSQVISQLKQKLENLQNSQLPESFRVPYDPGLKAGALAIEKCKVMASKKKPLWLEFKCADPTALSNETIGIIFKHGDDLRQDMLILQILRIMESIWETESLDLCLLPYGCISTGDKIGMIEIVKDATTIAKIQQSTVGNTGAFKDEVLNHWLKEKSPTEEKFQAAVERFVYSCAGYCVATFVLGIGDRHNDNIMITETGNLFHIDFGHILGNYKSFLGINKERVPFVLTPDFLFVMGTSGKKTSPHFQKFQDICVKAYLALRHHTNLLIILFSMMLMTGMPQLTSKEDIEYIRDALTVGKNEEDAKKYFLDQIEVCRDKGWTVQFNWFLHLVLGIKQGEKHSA
recombinant PI3 kinase δ, sequence (O00329 whole entry): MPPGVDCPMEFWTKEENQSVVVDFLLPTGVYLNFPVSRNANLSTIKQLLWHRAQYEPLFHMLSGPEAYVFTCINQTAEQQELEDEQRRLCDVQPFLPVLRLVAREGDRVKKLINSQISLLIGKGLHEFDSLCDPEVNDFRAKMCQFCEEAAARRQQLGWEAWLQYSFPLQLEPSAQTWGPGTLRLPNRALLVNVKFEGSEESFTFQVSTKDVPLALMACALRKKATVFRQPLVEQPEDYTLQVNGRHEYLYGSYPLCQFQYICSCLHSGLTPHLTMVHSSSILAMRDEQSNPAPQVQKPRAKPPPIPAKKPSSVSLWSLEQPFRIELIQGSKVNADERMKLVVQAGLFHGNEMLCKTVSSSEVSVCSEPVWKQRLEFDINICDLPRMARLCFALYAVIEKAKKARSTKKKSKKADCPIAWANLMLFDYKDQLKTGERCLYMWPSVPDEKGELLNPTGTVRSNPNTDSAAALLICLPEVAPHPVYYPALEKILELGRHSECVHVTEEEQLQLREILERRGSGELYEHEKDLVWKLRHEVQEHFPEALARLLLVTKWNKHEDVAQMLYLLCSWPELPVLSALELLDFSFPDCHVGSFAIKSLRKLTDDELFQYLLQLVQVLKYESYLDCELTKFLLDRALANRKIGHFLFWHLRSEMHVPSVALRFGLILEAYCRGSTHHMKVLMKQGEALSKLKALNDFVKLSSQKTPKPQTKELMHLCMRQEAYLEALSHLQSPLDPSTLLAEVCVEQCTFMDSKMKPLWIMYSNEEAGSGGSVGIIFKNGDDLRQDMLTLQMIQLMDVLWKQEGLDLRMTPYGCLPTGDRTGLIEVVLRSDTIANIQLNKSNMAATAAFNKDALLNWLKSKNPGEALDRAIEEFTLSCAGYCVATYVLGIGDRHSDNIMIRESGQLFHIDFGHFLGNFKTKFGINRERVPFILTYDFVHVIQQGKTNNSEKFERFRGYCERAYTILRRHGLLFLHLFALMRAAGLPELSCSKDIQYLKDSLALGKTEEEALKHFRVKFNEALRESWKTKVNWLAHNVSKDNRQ
recombinant PI3 kinase δ, sequence (P27986 whole entry partner): as the sequence (P27986 whole entry partner) above

Take `Nc1ncnc2c1c(-c1ccc(O)cc1)nn2Cc1nc2cccc(C#CCC3CCCC3)c2c(=O)n1Cc1ccccc1Cl` [Example 39, 2-((4-Amino-3-(4-hydroxyphenyl)-1H-pyrazolo[3,4-d]pyrimidin-1-yl)methyl)-3-(2-chlorobenzyl)-5-(3-cyclopentylprop-1-ynyl)quinazolin-4(3H)-one]: the “Cell Viability MTT Assay in D-U937 cells at 4 hr” value in data set [1] was “− (− <30%)”. Moreover, the “Cell Viability MTT Assay in D-U937 cells at 24 hr” value in data set [1] was “− (− <30%)”. Further, the IC50 in data set [2] (setting [6]) was less than 10 nM; in data set [3] (setting [7]) it was less than 50 nM; in data set [4] (setting [8]), 50 to 1000 nM; in data set [5] (setting [9]), less than 50 nM.
Consider `C#Cc1cccc2nc(Cn3nc(-c4ccc(F)c(O)c4)c4c(N)ncnc43)n(Cc3ccccc3Cl)c(=O)c12` [Example 51, 2-((4-Amino-3-(4-fluoro-3-hydroxyphenyl)-1H-pyrazolo [3,4-d]pyrimidin-1-yl)methyl)-3-(2-chlorobenzyl)-5-ethynylquinazolin-4(3H)-one], for which the “Cell Viability MTT Assay in D-U937 cells at 4 hr” value in data set [1] was “− (− <30%)”. In addition, the “Cell Viability MTT Assay in D-U937 cells at 24 hr” value in data set [1] is given as “− (− <30%)”. Also, the IC50 in data set [2] (setting [6]) was less than 10 nM; in data set [3] (setting [7]), 50 to 1000 nM; in data set [4] (setting [8]), 50 to 1000 nM; in data set [5] (setting [9]) it was less than 50 nM.
As for `COCC#Cc1cccc2nc(Cn3nc(-c4cccc(O)c4)c4c(N)ncnc43)n(Cc3cccc(C(F)(F)F)c3)c(=O)c12` [Example 37, 2-((4-Amino-3-(3-hydroxyphenyl)-1H-pyrazolo[3,4-d]pyrimidin-1-yl)methyl)-5-(3-methoxyprop-1-ynyl)-3-(3-(trifluoromethyl)benzyl)quinazolin-4(3H)-one], the “Cell Viability MTT Assay in D-U937 cells at 4 hr” value in data set [1] was “− (− <30%)”. Also, the “Cell Viability MTT Assay in D-U937 cells at 24 hr” value in data set [1] is on record as “− (− <30%)”. The IC50 in data set [2] (setting [6]) is less than 10 nM; in data set [2] (read-out: Cellular Activity IC50 values (H2O2 induced pAkt (nM) D-U937 Cells)), 0.33 nM; in data set [3] (setting [7]), 50 to 1000 nM; in data set [3] (read-out: PI3 Kinase Inhibition IC50 values at stated Isozyme (nM) α), 474 nM; in data set [4] (setting [8]) it was greater than 1000 nM; in data set [4] (read-out: PI3 Kinase Inhibition IC50 values at stated Isozyme (nM) γ), 1610 nM. The IC50 in data set [5] (setting [9]) is less than 50 nM; in data set [5] (read-out: PI3 Kinase Inhibition IC50 values at stated Isozyme (nM) δ), 12 nM.
As to `COCCN(CCCC#Cc1cccc2nc(Cn3nc(-c4ccc(O)cc4)c4c(N)ncnc43)n(Cc3ccccc3Cl)c(=O)c12)CCOC` [Example 73, 2-((4-Amino-3-(4-hydroxyphenyl)-1H-pyrazolo[3,4-d]pyrimidin-1-yl)methyl)-5-(5-(bis(2-methoxyethyl)amino)pent-1-ynyl)-3-(2-chlorobenzyl)quinazolin-4(3H)-one], in data set [1], the “Cell Viability MTT Assay in D-U937 cells at 4 hr” value is recorded as “− (− <30%)”. Besides, the “Cell Viability MTT Assay in D-U937 cells at 24 hr” value in data set [1] was “− (− <30%)”. For the same compound, the IC50 in data set [2] (setting [6]) is less than 10 nM; in data set [3] (setting [7]) it was 50 to 1000 nM; in data set [4] (setting [8]), less than 50 nM; in data set [5] (setting [9]), less than 50 nM.
Turning to `COCCNC(=O)CCCC#Cc1cccc2nc(Cn3nc(-c4cccc(O)c4)c4c(N)ncnc43)n(Cc3ccccc3Cl)c(=O)c12` [Example 54, 6-(2-((4-Amino-3-(3-hydroxyphenyl)-1H-pyrazolo[3,4-d]pyrimidin-1-yl)methyl)-3-(2-chlorobenzyl)-4-oxo-3,4-dihydroquinazolin-5-yl)-N-(2-methoxyethyl)hex-5-ynamide], the “Cell Viability MTT Assay in D-U937 cells at 4 hr” value in data set [1] is “− (− <30%)”. In addition, the “Cell Viability MTT Assay in D-U937 cells at 24 hr” value in data set [1] was “− (− <30%)”. The IC50 is less than 10 nM in data set [2] (setting [6]), less than 50 nM in data set [3] (setting [7]), less than 50 nM in data set [4] (setting [8]) and less than 50 nM in data set [5] (setting [9]).
With `Nc1ncnc2c1c(-c1cccc(O)c1)nn2Cc1nc2cccc(C#CCCC(=O)N3CCOCC3)c2c(=O)n1Cc1ccccc1Cl` [Example 56], in data set [1], the “Cell Viability MTT Assay in D-U937 cells at 4 hr” value is “− (− <30%)”. Moreover, in data set [1], the “Cell Viability MTT Assay in D-U937 cells at 24 hr” value is given as “− (− <30%)”. Further, the half-inhibitory concentration (IC50) was less than 10 nM in data set [2] (setting [6]), less than 50 nM in data set [3] (setting [7]), less than 50 nM in data set [4] (setting [8]) and less than 50 nM in data set [5] (setting [9]).
For `Nc1ncnc2c1c(-c1ccc(O)cc1)nn2Cc1nc2cccc(C#CCCCC(=O)Nc3ccncc3)c2c(=O)n1Cc1ccccc1Cl` [Example 79, 6-(2-((4-Amino-3-(4-hydroxyphenyl)-1H-pyrazolo[3,4-d]pyrimidin-1-yl)methyl)-3-(2-chlorobenzyl)-4-oxo-3,4-dihydroquinazolin-5-yl)-N-(pyridin-4-yl)hex-5-ynamide], the “Cell Viability MTT Assay in D-U937 cells at 4 hr” value in data set [1] is “− (− <30%)”. The “Cell Viability MTT Assay in D-U937 cells at 24 hr” value in data set [1] was “− (− <30%)”. Besides, the IC50 in data set [2] (setting [6]) is less than 10 nM; in data set [3] (setting [7]), 50 to 1000 nM; in data set [4] (setting [8]), 50 to 1000 nM; in data set [5] (setting [9]), less than 50 nM.
Consider `CCN(CC)C(=O)CCCC#Cc1cccc2nc(Cn3nc(-c4ccc(O)cc4)c4c(N)ncnc43)n(Cc3ccccc3Cl)c(=O)c12` [Example 59, 6-(2-((4-Amino-3-(4-hydroxyphenyl)-1H-pyrazolo[3,4-d]pyrimidin-1-yl)methyl)-3-(2-chlorobenzyl)-4-oxo-3,4-dihydroquinazolin-5-yl)-N,N-diethylhex-5-ynamide], for which, in data set [1], the “Cell Viability MTT Assay in D-U937 cells at 4 hr” value is “− (− <30%)”. Further, the “Cell Viability MTT Assay in D-U937 cells at 24 hr” value in data set [1] was “− (− <30%)”. In addition, the IC50 in data set [2] (setting [6]) was less than 10 nM; in data set [3] (setting [7]), 50 to 1000 nM; in data set [4] (setting [8]), less than 50 nM; in data set [5] (setting [9]), less than 50 nM.
With `C#Cc1cccc2nc(Cn3nc(-c4ccc(O)cc4)c4c(N)ncnc43)n(Cc3ccccc3)c(=O)c12` [Example 44, 2-((4-Amino-3-(4-hydroxyphenyl)-1H-pyrazolo[3,4-d]pyrimidin-1-yl)methyl)-3-benzyl-5-ethynylquinazolin-4(3H)-one], in data set [1], the “Cell Viability MTT Assay in D-U937 cells at 4 hr” value is given as “− (− <30%)”. Moreover, the “Cell Viability MTT Assay in D-U937 cells at 24 hr” value in data set [1] was “− (− <30%)”. The IC50 in data set [2] (setting [6]) was less than 10 nM; in data set [3] (setting [7]) it was greater than 1000 nM; in data set [4] (setting [8]), 50 to 1000 nM; in data set [5] (setting [9]), less than 50 nM.
As for `Nc1ncnc2c1c(-c1ccc(O)cc1)nn2Cc1nc2cccc(C#CCCCO)c2c(=O)n1Cc1ccccc1Cl` [Example 41, 2-((4-Amino-3-(4-hydroxyphenyl)-1H-pyrazolo[3,4-d]pyrimidin-1-yl)methyl)-3-(2-chlorobenzyl)-5-(5-hydroxypent-1-ynyl)quinazolin-4(3H)-one], in data set [1], the “Cell Viability MTT Assay in D-U937 cells at 4 hr” value is listed as “− (− <30%)”. Moreover, the “Cell Viability MTT Assay in D-U937 cells at 24 hr” value in data set [1] is on record as “− (− <30%)”. The IC50 in data set [2] (setting [6]) was less than 10 nM; in data set [3] (setting [7]), 50 to 1000 nM; in data set [4] (setting [8]) it was 50 to 1000 nM; in data set [5] (setting [9]), less than 50 nM.
In the case of `Nc1ncnc2c1c(-c1cccc(O)c1)nn2Cc1nc2cccc(C#CCCCCC(=O)O)c2c(=O)n1Cc1ccccc1Cl` [Example 60, 7-(2-((4-Amino-3-(3-hydroxyphenyl)-1H-pyrazolo[3,4-d]pyrimidin-1-yl)methyl)-3-(2-chlorobenzyl)-4-oxo-3,4-dihydroquinazolin-5-yl)hept-6-ynoic acid], in data set [1], the “Cell Viability MTT Assay in D-U937 cells at 4 hr” value was “− (− <30%)”. The “Cell Viability MTT Assay in D-U937 cells at 24 hr” value in data set [1] is reported as “− (− <30%)”. Besides, the IC50 in data set [2] (setting [6]) is less than 10 nM; in data set [3] (setting [7]), 50 to 1000 nM; in data set [4] (setting [8]), less than 50 nM; in data set [5] (setting [9]), less than 50 nM.
For the compound `COc1cccc(Cn2c(Cn3nc(-c4ccc(O)cc4)c4c(N)ncnc43)nc3cccc(C#CCCCC(=O)N4CCOCC4)c3c2=O)c1F` [Example 64, 2-((4-Amino-3-(4-hydroxyphenyl)-1H-pyrazolo[3,4-d]pyrimidin-1-yl)methyl)-3-(2-fluoro-3-methoxybenzyl)-5-(6-morpholino-6-oxohex-1-yn-1-yl)quinazolin-4(3H)-one], in data set [1], the “Cell Viability MTT Assay in D-U937 cells at 4 hr” value was “− (− <30%)”. The “Cell Viability MTT Assay in D-U937 cells at 24 hr” value in data set [1] is on record as “− (− <30%)”. In addition, the IC50 is less than 10 nM in data set [2] (setting [6]), 50 to 1000 nM in data set [3] (setting [7]), less than 50 nM in data set [4] (setting [8]) and less than 50 nM in data set [5] (setting [9]).
